Source: PMC10629583, “Specific inhibition of an anticancer target, polo-like kinase 1, by allosterically dismantling its mechanism of substrate recognition” (Proceedings of the National Academy of Sciences of the …, 2023)

Columns and labels:
[1] = molecular target: T1, PBD1 F559E mutant (Homo sapiens, UniProt P53350, F559E); assay: FP-based binding/inhibition assay, PBD1 F559E; conditions: PBD1 F559E at EC85
T1 construct: constructs expressing PBD1 (residues 345–603) WT (pKM7650), F559D (pKM7878), F559E (pKM7879); His; TEV site (N); made in house; host or cells: bacteria (E. coli)
T1 sequence (P53350 345-603 F559E): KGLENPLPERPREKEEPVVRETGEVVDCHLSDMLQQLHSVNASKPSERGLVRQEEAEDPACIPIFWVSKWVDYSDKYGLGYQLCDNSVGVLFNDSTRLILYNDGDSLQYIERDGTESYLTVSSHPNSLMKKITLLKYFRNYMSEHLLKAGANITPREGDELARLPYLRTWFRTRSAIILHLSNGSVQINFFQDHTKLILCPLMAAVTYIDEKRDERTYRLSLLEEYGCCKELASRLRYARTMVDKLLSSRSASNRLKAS
Method: (§1) FP assays were carried out essentially as described previously ([35], [36]). FITC-conjugated ligands (15 nM) were mixed with PBDs at their EC85 concentrations. All the samples were analyzed approximately 30 min after reaction in a 384-well format using the SpectraMax Paradigm multimode microplate detection platform (Molecular Devices). Data were analyzed after carrying out at least three independent experiments using GraphPad Prism software version 8.
Fig. S4. Generation of F559 mutants for in vitro and cell-based assays in Fig. 4. (A) SDS-PAGE showing the proteins used for the FP assays in Fig. 4 A and B. CBB, a Coomassie Brilliant Blue– stained gel. (B) Summary of Kd and EC85 values for PBD1 WT and mutants. The Kd values for PBD1 WT and mutants were determined after extrapolating them from the binding curves as the concentration at which 50% of the FITC-Ahx-DPPLHSpTAI-NH2 are PBD1-bound. The EC85 values indicate the effective concentration of 85% of the maximal concentration calculated for each protein. The FP values were obtained 30 minutes after incubation. For the F559K and F559R mutants, we were not able to determine the EC85 values and therefore used 2 µM of these proteins for the assays in Fig. 4B. N.D., not determined. […]

[2] = molecular target: T2, Plk2 PBD (PBD2) (Homo sapiens, UniProt Q9NYY3); assay: FP-based inhibition assay, PBD2; assay type: binding; conditions: bacterially expressed purified PBD, FITC-ligand 15 nM, PBD at EC85
T2 construct: Purification of PBD2-His (355–685) (pKM3358) and its S652F mutant (pKM7980); His (C); made in house; host or cells: bacteria (E. coli)
T2 sequence (Q9NYY3 355-685): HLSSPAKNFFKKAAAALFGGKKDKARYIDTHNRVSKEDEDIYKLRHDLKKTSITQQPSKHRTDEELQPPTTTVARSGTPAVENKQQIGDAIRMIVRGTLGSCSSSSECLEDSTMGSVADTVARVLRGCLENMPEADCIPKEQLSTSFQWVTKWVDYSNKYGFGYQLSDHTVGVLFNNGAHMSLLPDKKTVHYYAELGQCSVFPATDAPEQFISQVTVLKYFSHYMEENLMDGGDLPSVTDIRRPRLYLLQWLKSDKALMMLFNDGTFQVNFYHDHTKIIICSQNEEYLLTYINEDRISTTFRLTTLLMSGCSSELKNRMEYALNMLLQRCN
Method: as §1, with “FITC-conjugated ligands (15 nM) were mixed with PBDs at their EC85 concentrations.” left out

[3] = molecular target: T3, PBD3 A612F mutant (Homo sapiens, UniProt Q9H4B4, A612F); assay: FP-based inhibition assay, PBD3 A612F; assay type: binding; conditions: MBP-PBD3 A612F
T3 construct: MBP-PBD3-His (335–646) (pKM3359) and its A612F (pKM7981); His (C); made in house; host or cells: bacteria (E. coli)
T3 sequence (Q9H4B4 335-646 A612F): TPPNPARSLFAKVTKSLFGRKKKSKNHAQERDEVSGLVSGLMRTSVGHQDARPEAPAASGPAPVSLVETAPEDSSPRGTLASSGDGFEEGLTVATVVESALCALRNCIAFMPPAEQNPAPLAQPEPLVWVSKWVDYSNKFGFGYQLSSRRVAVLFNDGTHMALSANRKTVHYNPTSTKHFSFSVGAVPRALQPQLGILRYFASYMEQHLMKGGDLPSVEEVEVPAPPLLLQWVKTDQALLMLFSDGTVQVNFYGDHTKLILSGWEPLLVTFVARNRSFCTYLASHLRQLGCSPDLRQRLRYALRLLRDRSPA
Method: as §1
Fig. S3. Sequence alignment showing unique PBD2 S652 and PBD3 A612 residues and FP-based Allopole-A inhibition assays carried out with PBD2 S652F and PBD A612F mutants. (A) Human PBD1 (Uniprot ID: P53350), PBD2 (Uniprot ID: Q9NYY3), and PBD3 (15niport ID:Q9H4B4) sequences were aligned using Clustal Omega. The polo-box cap and L1 loop regions were adjusted based on the structural superposition of PBD1 (PDB ID: 3HIK), PBD2 (PDB_ID: 4RS6), and the AlphaFold model of PBD3 (https://alphafold.ebi.ac.uk). […]
with PBD2 and MBP-PBD3 are working properly under our conditions. […] The Kd values for the indicated proteins were determined after extrapolating them from the binding curves as the […]
concentration at which 50% of FITC-conjugated ligands (FITC-GPMQTSpTPKNG for PBD2 and FITC-GPLATSpTPKNG for PBD3) (5) are protein-bound. The EC85 values indicate the effective concentration of 85% of the maximal concentration calculated for each protein. […]

[4] = tested on: mGFP-Plk1 F559D at centrosomes, U2OS cells; assay: Confocal quantification of Pendo-mGFP-Plk1 F559D in U2OS cells (siPlk1); assay type: cell-based; conditions: U2OS siPlk1, 8 μM, 2 or 16 h
Method: To corroborate the importance of the F559 residue for Allopole-A binding, U2OS cells expressing endogenous promoter (i.e., Pendo)-controlled mGFP-Plk1 WT or F559D mutant were depleted of endogenous Plk1 by RNAi for 48 h (SI Appendix, Fig. S4C), treated with control DMSO or 8 μM of Allopole for 2 or 16 h, and fixed (SI Appendix, Fig. S4D). Afterward, the level of mGFP fluorescence was quantified using confocal microscopy (Fig. 4 C and D). As expected from the results shown in Fig. 1 C and D, Allopole delocalized mGFP-Plk1 WT from centrosomes within 2 h after treatment, and this effect was sustained for up to 16 h. […] This could be attributable to the fact that unlike PBIP1, which binds to PBD1 through the self-priming and binding mechanism ([49]), Bub1, BubR1, and likely Cdc25C require Cdc2-dependent priming phosphorylation to interact with PBD1 ([42]–[44]). […]
Confocal images of unsaturated fluorescence signals were acquired under the same laser intensity at the 12-bit resolution. Fluorescence intensities for identifiable centrosome and kinetochore signals were quantified after the maximum-intensity projection of z-stacks using the Zeiss ZEN v2.1 software (Carl Zeiss Microscopy, LLC). Data were quantified from three independent experiments.

O=c1c2sc(Cl)cc2n2c(=S)[nH]nc2n1CC1CC1 [Allopole-A]
Inhibition of FITC-phosphopeptide binding (in words) [1]: failed to inhibit | PBD2 IC50 ± SD [2]: N. S. | Inhibition in FP assay (in words) [3]: not inhibitable

Cn1cnc([N+](=O)[O-])c1Sc1nnc2n(CC3CC3)c(=O)c3sc(Cl)cc3n12 [Allopole]
Level of centrosome-localized mGFP-Plk1 F559D (in words) [4]: failed to alter the level
